Assays:
Assay type in all cases: in vivo
Plutella xylostella = assay: Pesticidal test against Plutella xylostella (cabbage leaf dip); details: foliar, 144 h, 2-stage larvae, examined after 6 days, 25° C., read-out: pesticidal rate; for pest or weed control at 1 ppm: concentration 1 ppm
Protocol: (§1) Pesticidal Test against Plutella xylostella A piece of a cabbage leaf was immersed for 30 seconds in a chemical solution in which a test compound had been prepared at a predetermined concentration, and air-dried, and then put into a 7 cm polyethylene cup having a filter paper laid on the bottom thereof, and 2-stage larvae of Plutella xylostella were released. They were left to stand in a thermostatic chamber at 25° C., and the numbers of the living pests and the dead pests were examined after 6 days. The test was carried out with five larvae per group in two replicates. Further, the above compound (A) was used as a comparative compound.

Laodelphax striatellus = assay: Pesticidal test against Laodelphax striatellus (rice seedling spray); details: 144 h, concentration 100 ppm, 3-stage larvae, examined after 6 days, 25° C., read-out: pesticidal rate
Protocol: Pesticidal Test against Laodelphax striatellus
2.5 ml of an acetone solution in which a test compound had been prepared at a predetermined concentration was sprayed on rice seedlings, air-dried, and then put into a glass tube having a diameter of 3 cm and a height of 13 cm, having water therein, and 3-stage larvae of Laodelphax striatellus were released and the tube was capped. They were left to stand in a thermostatic chamber at 25° C., and the numbers of the living pests and the dead pests were examined after 6 days. The test was carried out with ten larvae per group in two replicates.

Spodoptera litura = assay: Pesticidal test against Spodoptera litura (cabbage leaf dip); details: foliar, 144 h, concentration 1 ppm, 2-stage larvae, examined after 6 days, 25° C., read-out: pesticidal rate
Protocol: as §1, with “Spodoptera litura” for “Plutella xylostella”, “following” for “above”, “(A) disclosed in the pamphlet of International Publication WO 2005/073165” for “(A)”

O=C(Nc1c(Br)cc(C(F)(C(F)(F)F)C(F)(F)F)cc1C(F)(F)F)c1cccc(NC(=O)c2cccnc2Cl)c1 [6-304]
≥ 70%: pest or weed control at 1 ppm (Plutella xylostella) | pest or weed control at 100 ppm (Laodelphax striatellus) | pest or weed control at 1 ppm (Spodoptera litura)

O=C(Nc1c(Br)cc(C(F)(C(F)(F)F)C(F)(F)F)cc1C(F)(F)F)c1cccc(NC(=O)c2cccnc2I)c1 [6-306]
≥ 70%: pest or weed control at 1 ppm (Plutella xylostella) | pest or weed control at 100 ppm (Laodelphax striatellus) | pest or weed control at 1 ppm (Spodoptera litura)

O=C(Nc1cccc(C(=O)Nc2c(Br)cc(C(F)(C(F)(F)F)C(F)(F)F)cc2C(F)(F)F)c1)c1ccc(Cl)nc1 [6-311]
≥ 70%: pest or weed control at 10 ppm (Plutella xylostella; concentration 10 ppm) | pest or weed control at 100 ppm (Laodelphax striatellus) | pest or weed control at 1 ppm (Spodoptera litura)

O=C(Nc1c(I)cc(C(F)(C(F)(F)F)C(F)(F)F)cc1C(F)(F)F)c1cccc(NC(=O)c2ccccc2F)c1 [6-425]
≥ 70%: pest or weed control at 1 ppm (Plutella xylostella) | pest or weed control at 100 ppm (Laodelphax striatellus) | pest or weed control at 1 ppm (Spodoptera litura)

N#Cc1cccc(C(=O)Nc2cccc(C(=O)Nc3c(I)cc(C(F)(C(F)(F)F)C(F)(F)F)cc3C(F)(F)F)c2)c1 [6-444]
≥ 70%: pest or weed control at 1 ppm (Plutella xylostella) | pest or weed control at 100 ppm (Laodelphax striatellus) | pest or weed control at 1 ppm (Spodoptera litura)

N#Cc1ccc(C(=O)Nc2cccc(C(=O)Nc3c(I)cc(C(F)(C(F)(F)F)C(F)(F)F)cc3C(F)(F)F)c2)cc1 [6-445]
≥ 70%: pest or weed control at 1 ppm (Plutella xylostella) | pest or weed control at 100 ppm (Laodelphax striatellus) | pest or weed control at 1 ppm (Spodoptera litura)

O=C(Nc1c(I)cc(C(F)(C(F)(F)F)C(F)(F)F)cc1C(F)(F)F)c1cccc(NC(=O)c2cccnc2Br)c1 [6-461]
≥ 70%: pest or weed control at 1 ppm (Plutella xylostella) | pest or weed control at 100 ppm (Laodelphax striatellus) | pest or weed control at 1 ppm (Spodoptera litura)

O=C(Nc1cccc(C(=O)Nc2c(Br)cc(C(F)(C(F)(F)F)C(F)(F)F)cc2Br)c1F)c1cccnc1Cl [6-1140, 2-chloro-N-(3-(2,6-dibromo-4-(perfluoropropan-2-yl)phenylcarbamoyl)-2-fluorophenyl)nicotinamide]
≥ 70%: pest or weed control at 1 ppm (Plutella xylostella) | pest or weed control at 100 ppm (Laodelphax striatellus) | pest or weed control at 1 ppm (Spodoptera litura)

O=C(Nc1cccc(C(=O)Nc2c(Br)cc(C(F)(C(F)(F)F)C(F)(F)C(F)(F)F)cc2Br)c1F)c1ccccc1F (stereo not drawn) [6-1183]
≥ 70%: pest or weed control at 1 ppm (Plutella xylostella) | pest or weed control at 100 ppm (Laodelphax striatellus) | pest or weed control at 1 ppm (Spodoptera litura)

O=C(Nc1cccc(C(=O)Nc2c(Br)cc(C(F)(C(F)(F)F)C(F)(F)C(F)(F)F)cc2Br)c1F)c1ccc(F)cc1 (stereo not drawn) [6-1185]
≥ 70%: pest or weed control at 1 ppm (Plutella xylostella) | pest or weed control at 100 ppm (Laodelphax striatellus) | pest or weed control at 1 ppm (Spodoptera litura)

N#Cc1ccc(C(=O)Nc2cccc(C(=O)Nc3c(Br)cc(C(F)(C(F)(F)F)C(F)(F)C(F)(F)F)cc3Br)c2F)cc1 (stereo not drawn) [6-1203]
≥ 70%: pest or weed control at 1 ppm (Plutella xylostella) | pest or weed control at 100 ppm (Laodelphax striatellus) | pest or weed control at 1 ppm (Spodoptera litura)

O=C(Nc1cccc(C(=O)Nc2c(Br)cc(C(F)(C(F)(F)F)C(F)(F)C(F)(F)F)cc2Br)c1F)c1ccc(Cl)nc1 (stereo not drawn) [6-1225]
≥ 70%: pest or weed control at 1 ppm (Plutella xylostella) | pest or weed control at 100 ppm (Laodelphax striatellus) | pest or weed control at 1 ppm (Spodoptera litura)

O=C(Nc1cccc(C(=O)Nc2c(I)cc(C(F)(C(F)(F)F)C(F)(F)F)cc2I)c1F)c1ccccc1F [6-1261]
≥ 70%: pest or weed control at 1 ppm (Plutella xylostella) | pest or weed control at 100 ppm (Laodelphax striatellus) | pest or weed control at 1 ppm (Spodoptera litura)

O=C(Nc1c(I)cc(C(F)(C(F)(F)F)C(F)(F)F)cc1I)c1cccc(NC(=O)c2c(F)cccc2F)c1F [6-1282]
≥ 70%: pest or weed control at 1 ppm (Plutella xylostella) | pest or weed control at 100 ppm (Laodelphax striatellus) | pest or weed control at 1 ppm (Spodoptera litura)

O=C(Nc1cccc(C(=O)Nc2c(I)cc(C(F)(C(F)(F)F)C(F)(F)F)cc2I)c1F)c1ccc(Cl)nc1 [6-1303]
≥ 70%: pest or weed control at 1 ppm (Plutella xylostella) | pest or weed control at 100 ppm (Laodelphax striatellus) | pest or weed control at 1 ppm (Spodoptera litura)

O=C(Nc1cccc(C(=O)Nc2c(I)cc(C(F)(C(F)(F)F)C(F)(F)C(F)(F)F)cc2I)c1F)c1ccccc1F (stereo not drawn) [6-1339]
≥ 70%: pest or weed control at 1 ppm (Plutella xylostella) | pest or weed control at 100 ppm (Laodelphax striatellus) | pest or weed control at 1 ppm (Spodoptera litura)

O=C(Nc1cccc(C(=O)Nc2c(I)cc(C(F)(C(F)(F)F)C(F)(F)C(F)(F)F)cc2I)c1F)c1cccc(F)c1 (stereo not drawn) [6-1340]
≥ 70%: pest or weed control at 1 ppm (Plutella xylostella) | pest or weed control at 100 ppm (Laodelphax striatellus) | pest or weed control at 1 ppm (Spodoptera litura)

O=C(Nc1cccc(C(=O)Nc2c(I)cc(C(F)(C(F)(F)F)C(F)(F)C(F)(F)F)cc2I)c1F)c1ccc(Cl)nc1 (stereo not drawn) [6-1381]
≥ 70%: pest or weed control at 1 ppm (Plutella xylostella) | pest or weed control at 100 ppm (Laodelphax striatellus) | pest or weed control at 1 ppm (Spodoptera litura)

O=C(Nc1cccc(C(=O)Nc2c(Br)cc(C(F)(C(F)(F)F)C(F)(F)C(F)(F)F)cc2C(F)(F)F)c1F)c1ccccc1F (stereo not drawn) [6-1653]
≥ 70%: pest or weed control at 1 ppm (Plutella xylostella) | pest or weed control at 100 ppm (Laodelphax striatellus) | pest or weed control at 1 ppm (Spodoptera litura)

O=C(Nc1cccc(C(=O)Nc2c(I)cc(C(F)(C(F)(F)F)C(F)(F)F)cc2C(F)(F)F)c1F)c1ccc(Cl)cc1Cl [6-1754]
≥ 70%: pest or weed control at 1 ppm (Plutella xylostella) | pest or weed control at 100 ppm (Laodelphax striatellus) | pest or weed control at 1 ppm (Spodoptera litura)

O=C(Nc1cccc(C(=O)Nc2c(I)cc(C(F)(C(F)(F)F)C(F)(F)F)cc2C(F)(F)F)c1F)c1cccnc1Cl [6-1766]
≥ 70%: pest or weed control at 1 ppm (Plutella xylostella) | pest or weed control at 100 ppm (Laodelphax striatellus) | pest or weed control at 1 ppm (Spodoptera litura)

O=C(Nc1cc(C(=O)Nc2c(Br)cc(C(F)(C(F)(F)F)C(F)(F)F)cc2C(F)(F)F)ccc1F)c1ccccc1 [6-3348, 3-benzamide-N-(2-bromo-4-(perfluoropropan-2-yl)-6-(trifluoromethyl)phenyl)-4-fluorobenzamide]
≥ 70%: pest or weed control at 1 ppm (Plutella xylostella) | pest or weed control at 100 ppm (Laodelphax striatellus) | pest or weed control at 1 ppm (Spodoptera litura)

O=C(Nc1c(Br)cc(C(F)(C(F)(F)F)C(F)(F)F)cc1C(F)(F)F)c1ccc(F)c(NC(=O)c2cccnc2Cl)c1 [6-3384]
≥ 70%: pest or weed control at 1 ppm (Plutella xylostella) | pest or weed control at 100 ppm (Laodelphax striatellus) | pest or weed control at 1 ppm (Spodoptera litura)

O=C(Nc1cccc(C(=O)Nc2c(I)cc(C(F)(C(F)(F)F)C(F)(F)C(F)(F)F)cc2I)c1)c1cccc(F)c1 (stereo not drawn) [6-5903]
≥ 70%: pest or weed control at 1 ppm (Plutella xylostella) | pest or weed control at 100 ppm (Laodelphax striatellus) | pest or weed control at 1 ppm (Spodoptera litura)

O=C(Nc1cccc(C(=O)Nc2c(I)cc(C(F)(C(F)(F)F)C(F)(F)C(F)(F)F)cc2I)c1)c1ccc(F)cc1 (stereo not drawn) [6-5904]
≥ 70%: pest or weed control at 1 ppm (Plutella xylostella) | pest or weed control at 100 ppm (Laodelphax striatellus) | pest or weed control at 1 ppm (Spodoptera litura)

O=C(Nc1cccc(C(=O)Nc2c(Br)cc(C(F)(C(F)(F)F)C(F)(F)C(F)(F)F)cc2Br)c1)c1ccc(F)cc1 (stereo not drawn) [6-5906]
≥ 70%: pest or weed control at 1 ppm (Plutella xylostella) | pest or weed control at 100 ppm (Laodelphax striatellus) | pest or weed control at 1 ppm (Spodoptera litura)

Reference: patent US8686044B2, “Amide derivative, pest control agent containing the amide derivative, and use of the amide derivative” (Mitsui Chemicals Agro, Inc., priority 2008, dated 2014)
